“Also recorded” adds a separate entry of the source. Marks after values point to notes of the source that are not given here.
How the values were obtained:
[1] = molecular target: T1, human cannabinoid type-2 receptors (hCB2) (Homo sapiens, UniProt P34972); assay: Competition receptor binding with [3H]CP-55,940, CHO-hCB2 membranes; conditions: single 1 μM concentration, 0.2 nM [3H]CP-55,940, CHO-hCB2
T1 construct: expressed in transfected cells; host or cells: CHO cells (CHO-hCB2), membranes or intact cells
T1 sequence (P34972 whole entry): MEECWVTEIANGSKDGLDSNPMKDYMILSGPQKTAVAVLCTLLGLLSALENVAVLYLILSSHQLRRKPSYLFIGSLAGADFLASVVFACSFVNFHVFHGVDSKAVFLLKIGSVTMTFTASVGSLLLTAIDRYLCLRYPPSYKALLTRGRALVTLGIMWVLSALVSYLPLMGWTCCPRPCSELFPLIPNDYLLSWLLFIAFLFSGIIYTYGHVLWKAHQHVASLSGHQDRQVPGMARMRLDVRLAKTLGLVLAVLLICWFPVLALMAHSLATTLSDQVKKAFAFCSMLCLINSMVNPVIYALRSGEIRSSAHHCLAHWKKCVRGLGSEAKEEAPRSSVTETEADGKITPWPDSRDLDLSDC
Procedure: (§1) Membrane homogenates were prepared for competition receptor binding and [^35S]GTPγS binding studies by using pellets previously frozen of CHO-hCB1 or CHO-hCB2 cells as described in ([Franks et al., 2014]). In short, pellets were thawed on ice, combined in a 40 ml glass Dounce homogenizer and homogenized in 20 ml of cold buffer (50 mM HEPES at pH 7.4, 3 mM MgCl2, and 1 mM EGTA) using 10 strokes. Homogenates were then centrifuged at 40,000 × g for 10 min at 4°C. After discarding the supernatant, pellets were homogenized and centrifuged twice more. Final pellets were re-suspended in ice-cold 50 mM HEPES, pH 7.4, aliquoted and stored at -80°C for future use. Protein concentration was determined the same day, prior to freezing, using BCA^TM Protein Assay (Thermo Fisher Scientific, Waltham, MA, USA).
(§2) The final volume of each sample was 1 ml, containing 50 mM Tris-HCl buffer (pH 7.4), 0.05% bovine serum albumin, 5 mM MgCl2, increasing concentrations of non-radioactive competing SERM ligands, and either 100 μg of CHO-hCB1 or 50 μg of CHO-hCB2 membrane homogenates. Non-specific binding was defined by radioactivity remaining in the presence of 1 μM of the non-radioactive CB1/CB2 agonist WIN-55,212-2. Each sample condition was performed in triplicate and allowed to reach equilibrium at room temperature for 90 min. Reactions were terminated by rapid vacuum filtration through Whatman GF/B glass fiber filters (Brandel, Inc.), followed by four 4 ml washes of ice-cold filtration buffer (50 mM Tris at pH 7.4 and 0.05% BSA). Filter punches of individual samples were placed in scintillation vials containing 4 mls of ScintiverseTM BD cocktail scintillation fluid (Fisher Scientific, Pittsburg, PA, USA). Final counts were determined using liquid scintillation spectrophotometry (Tri Carb 2100 TR Liquid Scintillation Analyzer, Packard Instrument Company, Meriden, CT, USA) after overnight incubation.
(§3) Statistical analyses were conducted by utilizing GraphPad Prism v6.0g (GraphPad Software, Inc.; San Diego, CA, USA). IC50 values from competition receptor binding curves were derived by non-linear regression. Experimental IC50 values were converted to Ki values (a measure of receptor affinity) by using the Cheng–Prusoff equation ([Cheng and Prusoff, 1973]). Non-linear regression analysis of concentration-effect curves was also used to determine potency (ED50 or IC50) and efficacy (Emax or Imax) for modulation of GTPγS and adenylyl cyclase activity, respectively. All IC50, EC50, Ki, and Kb values were converted to pEC50, pIC50, pKi, and pKb values in order to permit use of parametric statistical analyses. For all experiments comparing three or more values, an one-way ANOVA was employed, followed by Dunnett’s or Tukey’s post hoc tests. For comparisons of two values, an unpaired t-test was utilized. To determine significant radioligand displacement or modulation of G-protein activity compared to basal levels, a one-sample t-test was employed.
(§4) For initial comparison of potential SERM binding to CBRs, 14 commercially available compounds from 5 structurally distinct classes (Figure 1) were subjected to a radioligand binding screen (Figure 2).

[2] = molecular target: T2, human cannabinoid type-1 receptors (hCB1) (Homo sapiens, UniProt P21554); assay: Competition receptor binding with [3H]CP-55,940, CHO-hCB1 membranes; conditions: single 1 μM concentration, 0.2 nM [3H]CP-55,940, CHO-hCB1
T2 construct: host or cells: CHO cells (CHO-hCB1), membranes or intact cells
T2 sequence (P21554 whole entry): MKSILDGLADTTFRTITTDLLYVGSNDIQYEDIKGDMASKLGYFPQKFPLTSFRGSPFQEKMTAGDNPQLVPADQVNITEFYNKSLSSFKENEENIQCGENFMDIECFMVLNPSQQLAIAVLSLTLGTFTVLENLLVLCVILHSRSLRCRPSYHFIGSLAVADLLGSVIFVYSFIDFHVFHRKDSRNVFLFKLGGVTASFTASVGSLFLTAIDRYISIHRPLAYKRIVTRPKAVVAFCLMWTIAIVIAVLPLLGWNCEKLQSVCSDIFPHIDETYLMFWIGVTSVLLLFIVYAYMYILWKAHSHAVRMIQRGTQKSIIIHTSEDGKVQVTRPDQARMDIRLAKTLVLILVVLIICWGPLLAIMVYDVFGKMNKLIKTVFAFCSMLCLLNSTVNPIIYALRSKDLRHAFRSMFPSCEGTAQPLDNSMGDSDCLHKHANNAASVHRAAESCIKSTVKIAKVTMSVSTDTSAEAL
Procedure: as §1, with “In” for “Membrane homogenates were prepared for competition receptor binding and [^35S]GTPγS binding studies by using pellets previously frozen of CHO-hCB1 or CHO-hCB2 cells as described in ([Franks et al., 2014]). In”
as §2, with “Non-specific binding was defined by radioactivity remaining in the presence of 1 μM of the non-radioactive CB1/CB2 agonist WIN-55,212-2.” left out
as §3, with “Experimental IC50 values were converted to Ki values (a measure of receptor affinity) by using the Cheng–Prusoff equation ([Cheng and Prusoff, 1973]).” left out
as §4

[3] = molecular target: T1, human cannabinoid type-2 receptors (hCB2); assay: [35S]GTPγS binding, CHO-hCB2 membranes; assay type: biochemical; conditions: for intrinsic activity at hCB2Rs (partial or full inverse agonist): [35S]GTPγS binding, CHO-hCB2, 10 μM, compared with AM-630
Procedure: as §1, with “In” for “Membrane homogenates were prepared for competition receptor binding and [^35S]GTPγS binding studies by using pellets previously frozen of CHO-hCB1 or CHO-hCB2 cells as described in ([Franks et al., 2014]). In”
(§5) Non-specific binding was defined by radioactivity remaining in the presence of 10 μM of non-radioactive GTPγS. All reactions were incubated for 30 min at 30°C, terminated by filtration through Whatman GF/B glass fiber filters (Brandel, Inc.) and followed by four 4 ml washes of ice cold filtration buffer (50 mM HEPES, pH 7.4) containing 0.1% bovine serum albumin. Filter punches of individual samples were placed in scintillation vials containing 4 mls of ScintiverseTM BD cocktail scintillation fluid (Fisher Scientific, Pittsburg, PA, USA). Final counts were determined using liquid scintillation spectrophotometry (Tri Carb 2100 TR Liquid Scintillation Analyzer, Packard Instrument Company, Meriden, CT, USA) after overnight incubation.
as §3, with “Experimental IC50 values were converted to Ki values (a measure of receptor affinity) by using the Cheng–Prusoff equation ([Cheng and Prusoff, 1973]).” left out
(§6) CBRs are coupled to Gi/Go type G-proteins. Therefore, binding of agonists to CBRs leads to G-protein activation, antagonists produce no effect, and inverse agonists reduce basal G-protein activity produced by constitutively active receptors. SERMs were screened by examining the ability of a single receptor saturating concentration (10 μM) to modulate G-protein activity in membranes prepared from CHO-hCB1 and CHO-hCB2 cells. G-protein activation was quantified using employing [^35S]GTPγS, a non-hydrolyzable analog of GTP, that irreversibly binds to the G-proteins when activated.

[4] = molecular target: T1, human cannabinoid type-2 receptors (hCB2); assay: Adenylyl cyclase assay (forskolin-stimulated cAMP), intact CHO-hCB2 cells; assay type: cell-based
Procedure: (§7) Briefly, cells cultured between passages 4 and 15 were seeded into 24-well plates at a concentration of 6.5 million cells per plate and incubated overnight in a humidified incubator maintained at 37°C and 5% CO2. Growth media was removed the next day and replaced with media containing […] [^3H]adenine, 0.9g/L NaCl, and 0.5 mM isobutyl-methyl-xanthine (IBMX) for 2–3 h. Radioactive media was then removed and each well treated with 0.5 ml of varying concentrations of SERM compounds in a Krebs-Ringer-HEPES solution (10 mM HEPES, 110 mM NaCl, 25 mM Glucose, 55 mM Sucrose, 5 mM KCl, 1 mM MgCl2, 1.8 mM CaCl2, pH 7.4) containing 0.5 mM IBMX and 10 μM forskolin. Plates were then floated in a 37°C water bath for 15 min before reactions were terminated by addition of 50 μL of 2.2 N HCl to each well.
as §3, with “Experimental IC50 values were converted to Ki values (a measure of receptor affinity) by using the Cheng–Prusoff equation ([Cheng and Prusoff, 1973]).” left out
To provide a second measure of intrinsic activity, the ability of SERMs to modulate intracellular levels of cAMP in intact cells was examined (Figure 6). CBRs couple to Gi/Go-proteins, and thus cannabinoid agonists inhibit activity of the downstream intracellular effector adenylyl cyclase, reducing intracellular cAMP levels.

[5] = molecular target: T1, human cannabinoid type-2 receptors (hCB2); assay: Antagonism of CP-55,940 inhibition of adenylyl cyclase, intact CHO-hCB2 cells; assay type: cell-based
Procedure: as §7
(§8) Reactions were then terminated by adding 50 μL of 2.2 N HCl to each well. [^3H]cAMP was isolated using alumina column chromatography and radioactivity quantified following addition of 10 mls of scintiverseTM BD cocktail scintillation fluid (Fisher Scientific, Pittsburg, PA, USA) by liquid scintillation spectrophotometry (Tri Carb 2100 TR Liquid Scintillation Analyzer, Packard Instrument Company, Meriden, CT, USA).
as §3, with “Experimental IC50 values were converted to Ki values (a measure of receptor affinity) by using the Cheng–Prusoff equation ([Cheng and Prusoff, 1973]).” left out
(§9) IC50 and Kb values were converted to pIC50 and pKb values (pIC50 = -Log[IC50] or pKb = -Log[Kb], respectively) to allow use of parametric statistics for comparison.

[6] = molecular target: T2, human cannabinoid type-1 receptors (hCB1); assay: [35S]GTPγS binding, CHO-hCB1 membranes; assay type: biochemical; conditions: [35S]GTPγS binding, CHO-hCB1, compared with AM-251
Procedure: as §1, with “In” for “Membrane homogenates were prepared for competition receptor binding and [^35S]GTPγS binding studies by using pellets previously frozen of CHO-hCB1 or CHO-hCB2 cells as described in ([Franks et al., 2014]). In”
as §5
as §3, with “Experimental IC50 values were converted to Ki values (a measure of receptor affinity) by using the Cheng–Prusoff equation ([Cheng and Prusoff, 1973]).” left out
as §6

[7] = molecular target: T2, human cannabinoid type-1 receptors (hCB1); assay: Antagonism of CP-55,940 inhibition of adenylyl cyclase, intact CHO-hCB1 cells; assay type: cell-based
Procedure: as §7, §8
as §3, with “Experimental IC50 values were converted to Ki values (a measure of receptor affinity) by using the Cheng–Prusoff equation ([Cheng and Prusoff, 1973]).” left out
as §9

CC1=C(c2ccc(O)cc2)[C@H](c2ccc(OCCN3CCCCC3)cc2)Oc2cc(O)ccc21 [acolbifene]
displacement of [3H]CP-55,940 from hCB2Rs [1]: fails to displace; also recorded: did not produce any displacement | displacement of [3H]CP-55,940 from hCB1Rs [2]: fails to displace; also recorded: did not produce any displacement

CC/C(=C(\c1ccc(O)cc1)c1ccc(OCCNC)cc1)c1ccccc1 [ENDX, endoxifen]
displacement of [3H]CP-55,940 from hCB1Rs [2]: approximately 50%

COc1ccc(C(=O)c2c(C)n(CCN3CCOCC3)c3cc(I)ccc23)cc1 [AM-630]
reduction of G-protein activity, hCB2Rs ([3]; CHO-hCB2 membranes, 10 μM): 34% | EMAX, Intracellular [3H]cAMP ([4]; elevation of cAMP): 214 ± 6.5^b % | EC50 ([4]; increase of cAMP, 10 μM forskolin, read-out: EC50, Intracellular [3H]cAMP): 398 nM | pEC50, Intracellular [3H]cAMP ([4]; mean ± SEM): 6.40 ± 0.096^c | fold parallel shift-to-the-right of CP-55,940 concentration-effect curve, CHO-hCB2 ([5]; AM-630 1 μM pre-incubation): 33 fold | IMAX of CP-55,940 after pre-incubation with the drug ([5]; CHO-hCB2 cells, pre-incubation 30 min: OSP, NAF 10 μM, RAL, BAZ 2 μM, AM-630 1 μM): 31.7 ± 0.3% | Kb ([5]; calculated from shift of CP-55,940 curve, intact CHO-hCB2 cells, read-out: Kb (antagonist dissociation constant), CHO-hCB2): 55.4 nM | pKb, CHO-hCB2 ([5]; intact CHO-hCB2 cells, mean ± SEM): 7.26 ± .064^b

4-hydroxy-tamoxifen [4OH-TX]
intrinsic activity at CB1Rs (partial or full inverse agonist) [6]: partial | displacement of [3H]CP-55,940 from hCB1Rs [2]: approximately 50%

CN(C)CCOc1ccc(/C(=C(/CCCl)c2ccccc2)c2ccc(O)cc2)cc1 [4OH-TOR, 4-hydroxy-toremifene]
displacement of [3H]CP-55,940 from hCB1Rs [2]: approximately 50%

Oc1ccc2c(c1)CC[C@H](c1ccccc1)[C@@H]2c1ccc(OCCN2CCCC2)cc1 [LAS, lasofoxifene]
intrinsic activity at hCB2Rs (partial or full inverse agonist) [3]: partial inverse agonist activity

CC(C)N1CCN(c2ccc(C(=O)c3c(-c4ccc(O)cc4)sc4cc(O)ccc34)cc2)CC1 [Y-134]
intrinsic activity at hCB2Rs (partial or full inverse agonist) [3]: partial inverse agonist activity | intrinsic activity at CB1Rs (partial or full inverse agonist) [6]: partial

Cc1c(C(=O)NN2CCOCC2)nn(-c2ccc(Cl)cc2Cl)c1-c1ccc(I)cc1 [AM-281]
fold decrease in potency of CP-55,940, CHO-hCB1 ([7]; AM-281 1 μM pre-incubation): 16 fold | IMAX of CP-55,940 after pre-incubation with the drug ([7]; CHO-hCB1 cells, pre-incubation 30 min: OSP, NAF, BAZ 10 μM, RAL 2 μM, AM-281 1 μM): 35.7 ± 0.9% | Kb ([7]; calculated from shift of CP-55,940 curve, intact CHO-hCB1 cells, read-out: Kb (antagonist dissociation constant), CHO-hCB1): 155 nM | pKb, CHO-hCB1 ([7]; intact CHO-hCB1 cells, mean ± SEM): 6.810 ± 0.061^a

Reference: paper PMC5177629, “Selective Estrogen Receptor Modulators: Cannabinoid Receptor Inverse Agonists with Differential CB1 and CB2 Selectivity” (Frontiers in Pharmacology, 2016)
